Test results: ChEMBL document CHEMBL1136365, “Hepatoprotective pyrrole derivatives of Lycium chinense fruits” (2003)

Columns and labels:
Assay type in all cases: functional, Hepatocyte
Rattus norvegicus [1] = species: Rattus norvegicus; test: Tested for release of glutamic pyruvic transaminase (GPT) from CCl4 induced toxicity in primary cultures of rat hepatocytes at 0.01 uM concentration
Rattus norvegicus [2] = species: Rattus norvegicus; test: Tested for release of glutamic pyruvic transaminase (GPT) from CCl4 induced toxicity in primary cultures of rat hepatocytes at 0.1 uM concentration
Rattus norvegicus [3] = species: Rattus norvegicus; test: Tested for release of glutamic pyruvic transaminase (GPT) from CCl4 induced toxicity in primary cultures of rat hepatocytes at 1 uM concentration
Rattus norvegicus [4] = species: Rattus norvegicus; test: Tested for release of glutamic pyruvic transaminase (GPT) from CCl4 induced toxicity in primary cultures of rat hepatocytes at 10 uM concentration
Rattus norvegicus [5] = species: Rattus norvegicus; test: Tested for release of glutamic pyruvic transaminase (GPT) from CCl4 induced toxicity in primary cultures of rat hepatocytes at 50 uM concentration

O=Cc1ccc(CO)n1CCCC(=O)O
Relative protection (Rattus norvegicus [1]): 12.4%
Relative protection (Rattus norvegicus [2]): 64.4%
Relative protection (Rattus norvegicus [3]): 39.7%
Relative protection (Rattus norvegicus [4]): 3.2%

COC(=O)CCCn1c(C=O)ccc1CO
Relative protection (Rattus norvegicus [1]): 5.1%
Relative protection (Rattus norvegicus [2]): 30.8%
Relative protection (Rattus norvegicus [3]): 40.8%
Relative protection (Rattus norvegicus [4]): 20.8%

COCc1ccc(C=O)n1CCCC(=O)OC
Relative protection (Rattus norvegicus [1]): 8.9%
Relative protection (Rattus norvegicus [2]): 38.5%
Relative protection (Rattus norvegicus [3]): 13.2%
Relative protection (Rattus norvegicus [4]): 15.9%

COCc1ccc(C=O)n1CCCC(=O)O
Relative protection (Rattus norvegicus [1]): 36%
Relative protection (Rattus norvegicus [2]): 65.8%
Relative protection (Rattus norvegicus [3]): 29.2%
Relative protection (Rattus norvegicus [4]): 14.2%

COc1cc([C@H]2Oc3cc([C@H]4Oc5cc(O)cc(O)c5C(=O)[C@@H]4O)ccc3O[C@@H]2CO)ccc1O [SILIBININ]
Relative protection (Rattus norvegicus [3]): 14.6%
Relative protection (Rattus norvegicus [4]): 28.8%
Relative protection (Rattus norvegicus [5]): 45.5%
